Results reported in patent US3984482A, “2-(Dihalobenzyl)-6-nitro-4-t-butylphenol and preparation thereof” (Institut de Recherches Chimiques et Biologiques Appliquees …, priority 1967, dated 1976).
Where two headings read alike, the source gives them in different places.

Columns and labels:
[1] = Acute toxicity per os in mice (LD 50, maximum tolerated dose); type: in vivo; details: mouse, po; for LD50: read-out: Approximate LD 50; for MTD: read-out: Approximate maximum tolerated dose
Experimental: The acute toxicity per os was determined in mice by the following method. Different doses of each compound were each tested on 10 mice, both male and female, weighing on average from 18 to 22 g; each dose was administered as a suspension in 10% gum arabic or olive oil and each mouse was given a uniform dose of 0.4 ml per 20 g weight of mouse with the aid of a probang.
The mice were starved for two hours before the experiment and the temperatures and behaviour of the animals were observed before the test and 11/2 and 3 hours after ingestion of the compound. After this time they were replaced in their cages and observed for several days.
The number of dead was counted daily and from this was deduced the lethal dose 50 (LD 50), the maxmum tolerated dose (MTD) and the minimum mortal dose MMD).

[2] = tested on: London staphylococcus; assay: Bacteriostatic activity in vitro by progressive dilution in culture broth, London staphylococcus; type: cell-based, Gram-positive London staphylococcus; details: conditions under which the compounds of Formula I were tested
Experimental: The bacteriostatic activities in vitro of the compounds of Formula I were determined by comparing them with known products, particularly of analogous series. The activity was determined with respect to the specific Gram-positive London staphylococcus as a reference strain for all the compounds.
The test was carried out in a culture broth of the following formula: […]
Indole-free bacteriological peptone
Sodium chloride 5% by weight
The method used involved progressive dilution of the principle tested. The dilutions varied by thousandths between concentrations of one thousandth and one tenth of a thousandth, and by 10 thousandths for concentrations between one tenth of a thousandth and 1/100 of a thousandth, and by hundred thousandths for concentrations between 1/100 of a thousandth and one millionth. If the product was found active at a dilution of one millionth, a new range was made from millionth to millionth to beyond one millionth.
Two dilution series were made independently and the results of the two series must be identical. The readings were carried out after 24 hours.
The figure given in the table is that of the maximum dilution at which the growth of London staphylococcus is inhibited.

Row | Compound | LD50 ([1]; solvent olive oil) [mg/kg] | MTD ([1]; solvent olive oil) [mg/kg] | other results
1 | CC(C)(C)c1ccc(O)c(Cc2ccc(Cl)c(Cl)c2)c1 [Example 7, 2-(3',4'-dichlorobenzyl)-4-t-butylphenol] | 1500 | 500 | –
2 | CC(C)(C)c1ccc(O)c(Cc2ccc(Cl)cc2)c1 [Example 3, 2-(4'-chlorobenzyl)-4-t-butylphenol] | – | – | LD50 ([1]; solvent 10% gum): 1900 mg/kg
3 | Oc1ccccc1 [Phenol] | – | – | inhibiting dilution [2]: 1/1000
4 | CC(C)c1ccc(O)c(Cc2ccc(Cl)cc2Cl)c1 [Example 4, 2-(2',4'-dichlorobenzyl)-4-isopropylphenol] | 1700 | 500 | –
5 | CC(C)(C)c1cc(Cl)c(O)c(Cc2ccc(Cl)cc2Cl)c1 [Example 10, 2-(2',4'-dichlorobenzyl)-6-chloro-4-t-butylphenol] | 1500 | 500 | –
6 | CC(C)(C)c1cc(Cl)c(O)c(Cc2ccc(Cl)c(Cl)c2)c1 [Example 9, 2-(3',4'-dichlorobenzyl)-6-chloro-4-t-butylphenol] | > 2500 | 500 | –
7 | CCC(C)c1ccc(O)c(Cc2ccc(Cl)cc2)c1 (stereo not shown) [Example 1, 2-(4'-chlorobenzyl)-4-sec-butylphenol] | – | – | LD50 ([1]; solvent 10% gum): 1000 mg/kg; MTD ([1]; solvent 10% gum): 500 mg/kg
8 | Cc1ccc(O)cc1 [Para-cresol] | – | – | inhibiting dilution [2]: 1/4000
9 | CC(C)c1ccc(O)c(Cc2ccc(Cl)cc2)c1 [Example 2, 2-(4'-chlorobenzyl)-4-isopropylphenol] | 1700 | 500 | –
10 | CCC(C)c1ccc(O)c(Cc2ccc(Cl)c(Cl)c2)c1 (stereo not shown) [Example 8, 2-(3',4'-dichlorobenzyl)-4-s-butylphenol] | 2400 | 1000 | –
11 | CC(C)(C)c1ccc(O)c(Cc2ccc(Cl)cc2Cl)c1 [Example 5, 2-(2',4'-dichlorobenzyl)-4-t-butylphenol] | 1700 | 500 | –
